Key:
[1] = system: non-Hodgkin lymphoma; experiment: Patient case: malignant lymphoma, chemotherapy and intravenous target therapy; format: in vivo, human; conditions: one patient, DDP, Vp-16 and IF0 given together
Experimental: From November of 2002 to August of 2003, the radiotherapy at both axillary regions was administered with DT49Gy, the radiotherapy at both neck regions were administered with DT45Gy. […] The hydrops was drawn off by puncture from the right thoracic cavity, cytology reported: a large amount of lymphocytes and mesothelial cells. The patient was admitted to the hospital for further treatment.
The B ultrasonotrophy on Feb.
After the intravenous target therapy of Bruceantin, Tetrandrine, thalicarpine, maytansine seperately as target agents in combination with anti-cancer drugs by stannous chloride affection for a conjugate as complex for six courses (all kinds of anti-cancer drugs), the effect was obvious.
From Feb. 27, 2006 to Mar. 24, 2006, the intravenous target chemotherapy of Bruceantin and Tetrandrine separately as target agents in combination with anti-cancer drugs by stannous chloride effective for conjugate as complex was administered for a period of four week. On Mar.
The intravenous target chemotherapy of Bruceantin as targeting compound in combination with anti-cancer drugs by stannous chloride function for conjugate as complex was continued for several courses. The CT re-examination in Shandong Medical Imaging Research Institute on Jul.
During the hospitalization, the patient was administered Bruceantin as targeting compound, in combination with the medicaments of 16 times (Arsenic trioxide 5 mg) and 6 times (Ara-C 50 mg), 12 times (cyclophosphamide 0.1), 2 times and VP 16) 50 mg.

[2] = system: gastric antrum cancer, intrahepatic lump; conditions: human, in vivo, iv
Experimental: The lateral lump by the lesser curvature of gastric antrum was administered a intratumoral chemotherapy for 3 times/week for three weeks, the lump at the head of pancreas region was administered intratumoral chemotherapy for 2 times/week fro two weeks, abdominal cavity was perfused for 6 times, in which 5-Fu+DDP 20 mg+IL-2 10^6 u were administered for 2 times, Bruceantin plus Adriamycin were perfused to abdominal cavity for 4 times in three weeks.
The intrahepatic lump was administered intratumoral chemotherapy for once. […] ETIFENIN (EHIDA) as target agent in combination with anticancer drugs plus stannous chloride were mixed for a conjugate as a complex, then it was administered intravenous for target therapy and repeated same therapy for 6 times (the formulated medicament mainly comprises: DDP 20 mg for 2 times, 5-Fu 0.5 for 2 times, Ara-C 25 mg for 2 times).

[3] = system: CD4 and CD8; experiment: Immunological pathological analysis of removed osteosarcoma tumor (CD4, CD8); format: in vivo; conditions: C57 mice, after three weeks iv treatment
Experimental: Osteosarcoma cell line growth in the culture for days to reach 10×10^3, then it is implanted into right arm of mice C57, wait about one week, tumor grow to 1 cm size. We prepared that Methylene Diphosphonate (MDP) 100 mg, Ara-C 50 mg and hapten DNP 0.5 mg were added into the stannous chloride 0.05 mg solution for mixture, incubate 5 minutes and produced a conjugated as complex. For treatment group: iv injection of this conjugated solution in 0.2 ml, two time/week for three weeks, for control group: iv injection of only 0.2 ml Ara-C, two time/week for three weeks. […] Surgical removed tumor for immunological pathological analysis, CD4 and CD8 show positive for MDP-Ara-C-DNP conjugated therapy group, control group show negative of CD4 and CD8.

[4] = system: D4 and CD8 antibodies activity; experiment: CytoxiLux analysis (flow cytometry, FIGS. 1A-B); format: cell-based; conditions: lymphoma C57 mice
Experimental: FIGS. 1A-B show flow cytometry results for CD4 and CD8 immunostaining cells
(§1) Lymphoma cells line growth in the culture for days to reach about 10×10^3, then it is implanted into the right arm of mice C57, about one week, tumor grow to 1 cm size. We prepared that Bruceantin […], Adymicine 10 mg and hapten DNP 0.5 mg were added into the stannous chloride 0.05 mg solution for mixture incubate 5 minutes and produced a conjugated as complex. For treatment group: iv injection of this conjugated solution in 0.2 ml, two-time/week fro three weeks, for control group: iv injection of only 0.2 ml Ara-C, two-time/week for three weeks.

[5] = system: CD4 and CD8; experiment: Immunological pathological analysis of removed lymphoma tumor (CD4, CD8); format: in vivo; conditions: C57 mice, after three weeks iv treatment
Experimental: as §1

## O=P1(NCCCl)OCCCN1CCCl (stereo not shown) [IF0]
[1]
  bone marrow inhibition after chemotherapy: inhibited to the III degree

## ETIFENIN (EHIDA) as target agent in combination with anticancer drugs
[2]
  symptoms after treatment: abdominal pain, abdominal distention, decreased appetite, accompanied by night sweating and debilitation

## COc1cc([C@@H]2c3cc4c(cc3[C@@H](O[C@@H]3O[C@@H]5CO[C@@H](C)O[C@H]5[C@H](O)[C@H]3O)[C@H]3COC(=O)[C@H]23)OCO4)cc(OC)c1O [Vp-16]
[1]
  bone marrow inhibition after chemotherapy: inhibited to the III degree

## N.N.[Cl][Pt][Cl] [DDP, Cisplatin]
[1]
  bone marrow inhibition after chemotherapy: inhibited to the III degree

## Nc1ccn([C@@H]2O[C@H](CO)[C@@H](O)[C@@H]2O)c(=O)n1 [Ara-C, Cytidine Arabinosyladenine]
[3]
  CD4 and CD8 in removed tumor: negative
[4]
  index of D4 and CD8 antibodies activity: 28%
[5]
  CD4 and CD8 in removed tumor: negative

From patent US9000036B2, “Compositions and methods for targeting of treating neoplasms” (priority 2006, dated 2015)
